Our source for the IC50 and EC50 values is patent US20160002204A1 (Board of Regents, The University of Texas System, priority 2014, published 2016).

For experiment [1], the target named is T1, GLS1 (purified recombinant human GAC) (Homo sapiens, UniProt O94925).
T1 sequence (O94925 55-598 isoform O94925-3 limits assumed): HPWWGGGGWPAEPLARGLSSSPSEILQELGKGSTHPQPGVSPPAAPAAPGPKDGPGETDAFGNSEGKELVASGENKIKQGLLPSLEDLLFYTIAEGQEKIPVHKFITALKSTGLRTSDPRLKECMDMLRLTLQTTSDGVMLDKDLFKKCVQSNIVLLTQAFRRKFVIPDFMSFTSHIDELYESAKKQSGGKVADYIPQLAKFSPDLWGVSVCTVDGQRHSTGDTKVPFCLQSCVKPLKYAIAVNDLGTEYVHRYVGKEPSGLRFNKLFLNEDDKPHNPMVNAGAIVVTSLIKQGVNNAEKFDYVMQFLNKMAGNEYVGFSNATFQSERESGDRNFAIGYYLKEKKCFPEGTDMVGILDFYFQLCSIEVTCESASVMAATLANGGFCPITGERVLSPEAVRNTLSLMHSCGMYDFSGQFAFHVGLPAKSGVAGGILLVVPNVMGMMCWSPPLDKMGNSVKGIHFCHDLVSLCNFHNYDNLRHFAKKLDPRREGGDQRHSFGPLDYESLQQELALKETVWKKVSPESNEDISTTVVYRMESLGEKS
The experiment is described as follows: GLS1 enzymatic activity assay (dual-coupled, Amplex UltraRed/resorufin). It is filed as biochemical. A digest of the protocol:
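GAC activity measured by coupling glutamate to glutamate oxidase and HRP, generating resorufin from Amplex UltraRed. Enzyme (2 nM) preincubated with 50 mM potassium phosphate 10 min at room temperature, then inhibitor 10 min; 1 mM glutamine substrate, 1% DMSO. Fluorescence 530/590 nm, kinetic or 20-min endpoint; IC50 from four-parameter logistic fit.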

The subject of experiment [2] is A549 cells. Put plainly: A549 proliferation (viability) assay, Cell Titer Fluor, 72 hours. Type of experiment: cell-based. The note with it: Homo sapiens. In outline: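 Seed A549 at 1000 cells/well and culture 24 h. Add compound (final DMSO 0.5%) and incubate 72 h at 37 °C. Add Cell Titer Fluor, mix 15 min, incubate 30 min, read fluorescence and fit EC50 by four-parameter logistic.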

The IC50 is the midpoint of a concentration-inhibition curve. In general, EC50 refers to the concentration that produces a half-maximal response. The low end stands for a more potent agent, the high end for a less potent agent. Turning to `O=C(Cc1cccc(OC(F)(F)F)c1)Nc1ccc(CCCCn2ccc(NC(=O)NC3CCCCC3)nc2=O)nn1` [Example 107, N-[6-(4-{4-[(cyclohexylcarbamoyl)amino]-2-oxo-1,2-dihydropyrimidin-1-yl}butyl)pyridazin-3-yl]-2-[3-(trifluoromethoxy)phenyl]acetamide], the IC50 in experiment [1] was < 100 nM. The compound also came in with an EC50 in experiment [2] of 500 to 5000 nM.
The like results for `CC(=O)OC(C(=O)Nc1ccn(CC[C@@H](F)Cn2cc(C(=O)NCc3cccc(OC(F)(F)F)c3)nn2)c(=O)c1F)c1ccccc1` (stereo in doubt) [Example 306, (R)-[(3-fluoro-1-{3-fluoro-4-[4-({[3-(trifluoromethoxy)phenyl]methyl}carbamoyl)-1H-1,2,3-triazol-1-yl]butyl}-2-oxo-1,2-dihydropyridin-4-yl)carbamoyl](phenyl)methyl acetate] were, in that order, < 100 nM and < 100 nM.
Consider `Cc1ccc(CNC(=O)c2cn(CC(F)CCn3ccc(NC(=O)CC4CCCCC4)cc3=O)nn2)cn1` (stereo not shown) [Example 177, 1-{4-[4-(2-cyclohexylacetamido)-2-oxo-1,2-dihydropyridin-1-yl]-2-fluorobutyl}-N-[(6-methylpyridin-3-yl)methyl]-1H-1,2,3-triazole-4-carboxamide], for which the IC50 in experiment [1] was < 100 nM. In addition, the EC50 in experiment [2] is < 100 nM.
As for `O=C(Cc1cccc(OC(F)(F)F)c1)Nc1ccn(CCCCn2cc(C(=O)NCC3CCCCC3)nn2)c(=O)c1` [Example 41, N-(cyclohexylmethyl)-1-[4-(2-oxo-4-{2-[3-(trifluoro-methoxy)phenyl]acetamido}-1,2-dihydropyridin-1-yl)butyl]-1H-1,2,3-triazole-4-carboxamide], the IC50 in experiment [1] is < 100 nM. In experiment [2], this compound displayed an EC50 of 500 to 5000 nM.
With `O=C(CC1CCC1)Nc1ccn(CCC(F)Cn2cc(C(=O)NCc3cncc(C(F)(F)F)c3)nn2)c(=O)c1F` (stereo not shown) [Example 350, 1-{4-[4-(2-cyclobutylacetamido)-3-fluoro-2-oxo-1,2-dihydropyridin-1-yl]-2-fluorobutyl}-N-{[5-(trifluoromethyl)pyridin-3-yl]methyl}-1H-1,2,3-triazole-4-carboxamide], in experiment [1], the IC50 was < 100 nM. Further, the EC50 in experiment [2] was < 100 nM.
Turning to `O=C(NCc1cccc(OC(F)(F)F)c1)c1cn(CC(F)CCn2ccc(COc3ccccc3)cc2=O)nn1` (stereo not shown) [Example 414, 1-(2-fluoro-4-(2-oxo-4-(phenoxymethyl)pyridin-1(2H)-yl)butyl)-N-(3-(trifluoromethoxy)benzyl)-1H-1,2,3-triazole-4-carboxamide], the IC50 in experiment [1] was < 100 nM. The compound further returned an EC50 in experiment [2] of 500 to 5000 nM.
Take `O=C(Nc1ccn(CCC(F)Cn2cc(C(=O)NCc3cccc(C(F)(F)F)c3)nn2)c(=O)c1F)C(=O)N1CCCCC1` (stereo not shown) [Example 421, 1-(2-fluoro-4-{3-fluoro-2-oxo-4-[2-oxo-2-(piperidin-1-yl)acetamido]-1,2-dihydropyridin-1-yl}butyl)-N-{[3-(trifluoromethyl)phenyl]methyl}-1H-1,2,3-triazole-4-carboxamide]: in experiment [1], the IC50 is < 100 nM. Besides, the concentration for a half-maximal effect (EC50) in experiment [2] was < 100 nM.
With `Cc1ccn(CCCCn2cc(C(=O)NCc3cccc(OC(F)(F)F)c3)nn2)c(=O)c1` [Example 11, 1-(4-(4-methyl-2-oxopyridin-1(2H)-yl)butyl)-N-(3-(trifluoromethoxy)benzyl)-1H-1,2,3-triazole-4-carboxamide], the IC50 in experiment [1] is 500 to 5000 nM. The EC50 in experiment [2] was > 5000 nM.
In the case of `CC(C)(C)CC(=O)Nc1ccn(CCC(F)Cn2cc(C(=O)NCc3cccc(OC(F)(F)F)c3)nn2)c(=O)c1F` (stereo not shown) [Example 340, 1-{4-[4-(3,3-dimethylbutanamido)-3-fluoro-2-oxo-1,2-dihydropyridin-1-yl]-2-fluorobutyl}-N-{[3-(trifluoromethoxy)phenyl]methyl}-1H-1,2,3-triazole-4-carboxamide], the IC50 in experiment [1] is < 100 nM. For the same compound, in experiment [2], the EC50 is < 100 nM.
Regarding `CC1(C)CN(CC(=O)Nc2ccn(CCC(F)Cn3cc(C(=O)NCc4cccc(OC(F)(F)F)c4)nn3)c(=O)c2F)CCO1` (stereo not shown) [Example 294, 1-(4-{4-[2-(2,2-dimethylmorpholin-4-yl)acetamido]-3-fluoro-2-oxo-1,2-dihydropyridin-1-yl}-2-fluorobutyl)-N-{[3-(trifluoromethoxy)phenyl]methyl}-1H-1,2,3-triazole-4-carboxamide], in experiment [1], the IC50 was < 100 nM. Further, the EC50 in experiment [2] is < 100 nM.
On to `O=C(Nc1ccn(CCCCn2cc(C(=O)NCc3cccc(OC(F)(F)F)c3)nn2)c(=O)c1)OCc1ccccc1` [Example 42, benzyl N-(2-oxo-1-{4-[4-({[3-(trifluoromethoxy)phenyl]methyl}carbamoyl)-1H-1,2,3-triazol-1-yl]butyl}-1,2-dihydropyridin-4-yl)carbamate], for which the IC50 in experiment [1] is < 100 nM. In experiment [2], this compound displayed an EC50 of 100 to 500 nM.
Consider `O=C(Nc1ccn(CCCCn2cc(C(=O)NCc3cccc(OC(F)(F)F)c3)nn2)c(=O)c1)OCc1cccc(OC(F)(F)F)c1` [Example 64, [3-(trifluoromethoxy)phenyl]methyl N-(2-oxo-1-{4-[4-({[3-(trifluoro-methoxy)phenyl]methyl}carbamoyl)-1H-1,2,3-triazol-1-yl]butyl}-1,2-dihydropyridin-4-yl)carbamate], for which the IC50 in experiment [1] was < 100 nM. The same compound showed an EC50 in experiment [2] of 100 to 500 nM.
As to `O=C(NCc1cccc(OC(F)(F)F)c1)c1ccn(CCCCn2cc(C(=O)NCc3cccc(OC(F)(F)F)c3)nn2)c(=O)c1` [Example 59, 2-oxo-N-{[3-(trifluoromethoxy)phenyl]methyl}-1-{4-[4-({[3-(trifluoro-methoxy)phenyl]methyl}carbamoyl)-1H-1,2,3-triazol-1-yl]butyl}-1,2-dihydropyridine-4-carboxamide], the IC50 in experiment [1] was < 100 nM. The same compound yielded an EC50 in experiment [2] of 100 to 500 nM.
Turning to `O=C(NCc1cccc(OC(F)(F)F)c1)c1cn(CC(F)CCn2ccc(NC(=O)[C@H](O)c3ccccc3)c(F)c2=O)nn1` (stereo partly drawn) [Example 287, 1-(2-fluoro-4-{3-fluoro-4-[(2R)-2-hydroxy-2-phenylacetamido]-2-oxo-1,2-dihydropyridin-1-yl}butyl)-N-{[3-(trifluoromethoxy)phenyl]methyl}-1H-1,2,3-triazole-4-carboxamide], the IC50 in experiment [1] was < 100 nM. In experiment [2], the EC50 is < 100 nM.
Take `O=C(Cc1cccc(OC(F)(F)F)c1)Nc1ccc(CCCCn2ccc(NC(=O)CC3CCCCC3)nc2=O)nn1` [Example 108, N-(6-{4-[4-(2-cyclohexylacetamido)-2-oxo-1,2-dihydropyrimidin-1-yl]butyl}pyridazin-3-yl)-2-[3-(trifluoromethoxy)phenyl]acetamide]: the IC50 in experiment [1] was < 100 nM. Further, in experiment [2], the EC50 is < 100 nM.
As to `Cc1ccc(CNC(=O)c2cn(CC(F)CCn3ccc(NC(=O)CC4CCC4)c(F)c3=O)nn2)cn1` (stereo not shown) [Example 304, 1-(4-(4-(2-cyclobutylacetamido)-3-fluoro-2-oxopyridin-1(2H)-yl)-2-fluorobutyl)-N-((6-methylpyridin-3-yl)methyl)-1H-1,2,3-triazole-4-carboxamide], the IC50 in experiment [1] was < 100 nM. The EC50 in experiment [2] was < 100 nM.
For `O=C(Cc1cccc(N2CCOCC2)c1)Nc1ccn(CCC(F)Cn2cc(C(=O)NCc3cccc(OC(F)(F)F)c3)nn2)c(=O)c1` (stereo not shown) [Example 237, 1-[2-fluoro-4-(4-{2-[3-(morpholin-4-yl)phenyl]acetamido}-2-oxo-1,2-dihydropyridin-1-yl)butyl]-N-{[3-(trifluoromethoxy)phenyl]methyl}-1H-1,2,3-triazole-4-carboxamide], the half-maximal inhibitory concentration (IC50) in experiment [1] was < 100 nM. Also, the EC50 in experiment [2] fell in the range of 100 to 500 nM.
